Measurements published in patent publication US10800792B2, “Inhibitors of Bruton's tyrosine kinase and method of their use” (JANSSEN PHARMACEUTICA NV, priority 2015, dated 2020).

biological target: unphosphorylated-BTK kinase domain (UP-BTK), GST-tagged human BTK (389-659aa) (Homo sapiens (Human), UniProt Q06187); experiment: BTK kinase Lanthascreen binding assay; conditions: Lanthascreen tracer competition, 60 minutes incubation; pIC50 = negative log of the IC50 in molar
How it was run: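 Lanthascreen competition binding; test compound vs fluorescent tracer on unphosphorylated BTK. Output: pIC50 (−log IC50, M).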

Sequence of unphosphorylated-BTK kinase domain (UP-BTK), GST-tagged human BTK (389-659aa) (Q06187 389-659): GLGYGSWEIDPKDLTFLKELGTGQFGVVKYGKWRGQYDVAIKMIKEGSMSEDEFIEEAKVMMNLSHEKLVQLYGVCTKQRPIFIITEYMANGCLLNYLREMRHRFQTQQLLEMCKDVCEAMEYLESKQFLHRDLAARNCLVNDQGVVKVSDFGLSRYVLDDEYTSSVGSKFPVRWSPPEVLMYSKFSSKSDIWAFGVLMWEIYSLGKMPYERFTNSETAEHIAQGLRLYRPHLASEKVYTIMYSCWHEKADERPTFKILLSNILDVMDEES

Row | Structure (SMILES) | BTK_I_binding pIC50
1 | C=CC(=O)N1CCC[C@@H](NC(=O)c2sc3nccc4c3c2NC(=O)N4c2cnc(OC3CCC3)cc2C)C1 [Example 672, (R)—N-(1-Acryloylpiperidin-3-yl)-5-(6-cyclobutoxy-4-methylpyridin-3-yl)-4-oxo-4,5-dihydro-3H-1-thia-3,5,8-triazaacenaphthylene-2-carboxamide] | 7.6
2 | Cc1cc(Oc2ccccc2)ccc1N1C(=O)Nc2c(C(=O)N[C@@H]3CCN(C(=O)/C(C#N)=C/C4CC4)C3)sc3nccc1c23 [Example 844, (R,E)-N-(1-(2-Cyano-3-cyclopropylacryloyl)pyrrolidin-3-yl)-5-(2-methyl-4-phenoxyphenyl)-4-oxo-4,5-dihydro-3H-1-thia-3,5,8-triazaacenaphthylene-2-carboxamide] | 7.6
3 | C=CC(=O)N1CCC[C@@H](NC(=O)c2sc3nccc4c3c2NC(=O)N4c2cc(-c3cccc(F)c3F)ccc2C)C1 [Example 842, (R)—N-(1-Acryloylpiperidin-3-yl)-5-(2′,3′-difluoro-4-methyl-[1,1′-biphenyl]-3-yl)-4-oxo-4,5-dihydro-3H-1-thia-3,5,8-triazaacenaphthylene-2-carboxamide] | 7.7
4 | CN1CCC[C@@H](NC(=O)c2sc3nccc4c3c2NC(=O)N4c2cccc(-c3cccc(F)c3F)c2)C1 [Example 710, (R)-5-(2′,3′-Difluoro-[1,1′-biphenyl]-3-yl)-N-(1-methylpiperidin-3-yl)-4-oxo-4,5-dihydro-3H-1-thia-3,5,8-triazaacenaphthylene-2-carboxamide] | 7.4
5 | Cc1cc(Oc2ccccc2)cnc1N1C(=O)Nc2c(C(=O)N[C@@H]3CCCNC3)sc3nccc1c23 [Example 595, (R)-5-(3-Methyl-5-phenoxypyridin-2-yl)-4-oxo-N-(piperidin-3-yl)-4,5-dihydro-3H-1-thia-3,5,8-triazaacenaphthylene-2-carboxamide] | 7.1

same assay, conditions: Lanthascreen tracer competition, 60 minutes incubation; pIC50 = negative log of the IC50 in molar; read-out: BTK_I_binding pIC50 (converted)

Row | Structure (SMILES) | IC50 [nM]
6 | Cc1cc(Oc2ccccc2)ccc1N1C(=O)Nc2c(C(=O)NC3CCCNC3)sc3nccc1c23 (stereo in doubt) [Example 869, (R)-5-(2-Methyl-4-phenoxyphenyl)-4-oxo-N-(piperidin-3-yl)-4,5-dihydro-3H-1-thia-3,5,8-triazaacenaphthylene-2-carboxamide] | 50.1
7 | O=C(N[C@@H]1CCNC[C@H]1O)c1sc2nccc3c2c1NC(=O)N3c1ccc(Oc2ccccc2)cc1 (relative stereo) [Example 615, N-(trans-3-Hydroxypiperidin-4-yl)-4-oxo-5-(4-phenoxyphenyl)-4,5-dihydro-3H-1-thia-3,5,8-triazaacenaphthylene-2-carboxamide] | 794
8 | O=C(N[C@@H]1CCCNC1)c1sc2nccc3c2c1NC(=O)N3c1ncc(Oc2ccccc2)cn1 [Example 719, (R)-4-Oxo-5-(5-phenoxypyrimidin-2-yl)-N-(piperidin-3-yl)-4,5-dihydro-3H-1-thia-3,5,8-triazaacenaphthylene-2-carboxamide] | 501
9 | Cc1cc(Oc2ccccc2)ccc1N1C(=O)Nc2c(NC(=O)C3CCCN(C)C3)sc3nccc1c23 (centres unmarked) [Example 823, 1-Methyl-N-(5-(2-methyl-4-phenoxyphenyl)-4-oxo-4,5-dihydro-3H-1-thia-3,5,8-triazaacenaphthylen-2-yl)piperidine-3-carboxamide] | 3160
10 | O=C(N[C@@H]1CCCNC1)c1sc2nccc3c2c1NC(=O)N3c1cccc(C2CCCCC2)c1 [Example 629, (R)-5-(3-Cyclohexylphenyl)-4-oxo-N-(piperidin-3-yl)-4,5-dihydro-3H-1-thia-3,5,8-triazaacenaphthylene-2-carboxamide] | 1260

same assay, conditions: pIC50 = negative log of the IC50 in molar; 60 minutes incubation, 50 nM Tracer 236

Row | Structure (SMILES) | BTK_I_binding pIC50
11 | Cc1cc(Oc2ccccc2)ccc1N1C(=O)Nc2c(C(=O)N[C@@H]3CCCN(C(=O)/C(C#N)=C/C(C)(C)N4CCOCC4)C3)sc3nccc1c23 (single isomer, unassigned) [Example 43, (R,E)-N-(1-(2-Cyano-4-methyl-4-morpholinopent-2-enoyl)piperidin-3-yl)-5-(*S)-(2-methyl-4-phenoxyphenyl)-4-oxo-4,5-dihydro-3H-1-thia-3,5,8-triazaacenaphthylene-2-carboxamide] | 7.2
12 | Cc1cc(Oc2ccccc2)ccc1N1C(=O)Nc2c(C(=O)N[C@H]3CNC[C@H](F)C3)sc3nccc1c23 [Example 138, N-((3R,5R)-5-fluoropiperidin-3-yl)-5-(2-methyl-4-phenoxyphenyl)-4-oxo-4,5-dihydro-3H-1-thia-3,5,8-triazaacenaphthylene-2-carboxamide] | 7.0
13 | CO[C@@H]1CN(C)C[C@@H]1NC(=O)c1sc2nccc3c2c1NC(=O)N3c1ccc(Oc2ccccc2)cc1C [Example 208, N-((3S,4R)-4-Methoxy-1-methylpyrrolidin-3-yl)-5-(2-methyl-4-phenoxyphenyl)-4-oxo-4,5-dihydro-3H-1-thia-3,5,8-triazaacenaphthylene-2-carboxamide] | 6.8
14 | C=CC(=O)N1CC[C@@H](NC(=O)c2sc3nccc4c3c2NC(=O)N4c2ccc(Oc3ccccc3)cc2C)C1 [Example 11, (R)—N-(1-Acryloylpyrrolidin-3-yl)-5-(2-methyl-4-phenoxyphenyl)-4-oxo-4,5-dihydro-3H-1-thia-3,5,8-triazaacenaphthylene-2-carboxamide] | 7.9

same assay, conditions: pIC50 = negative log of the IC50 in molar; 60 minutes incubation, 50 nM Tracer 236; read-out: BTK_I_binding pIC50 (converted)

Row | Structure (SMILES) | IC50 [nM]
15 | C=CC(=O)N1CCC[C@@H](NC(=O)c2sc3nccc4c3c2NC(=O)N4c2ccc(OC(C)C)cc2C)C1 [Example 33, (R)—N-(1-Acryloylpiperidin-3-yl)-5-(4-isopropoxy-2-methylphenyl)-4-oxo-4,5-dihydro-3H-1-thia-3,5,8-triazaacenaphthylene-2-carboxamide] | 31.6

same assay, conditions: unphosphorylated-BTK kinase domain, 50 nM Tracer 236, 60 minutes; pIC50 = negative log of the IC50 in molar

Row | Structure (SMILES) | BTK_I_binding pIC50
16 | Cc1cc(Oc2ccccc2)ccc1N1C(=O)Nc2c(C(=O)N[C@H]3CCNC(C)C3)sc3nccc1c23 (single isomer, unassigned) [Example 432, 5-(*S)-(2-Methyl-4-phenoxyphenyl)-N-((4*S)-2-methylpiperidin-4-yl)-4-oxo-4,5-dihydro-3H-1-thia-3,5,8-triazaacenaphthylene-2-carboxamide] | 7.0
17 | C=CC(=O)N1CCC[C@@H](NC(=O)c2sc3nccc4c3c2NC(=O)N4c2ccc(C(C)C)cc2C)C1 [Example 444, (R)—N-(1-Acryloylpiperidin-3-yl)-5-(4-isopropyl-2-methylphenyl)-4-oxo-4,5-dihydro-3H-1-thia-3,5,8-triazaacenaphthylene-2-carboxamide] | 7.2
18 | CN1CC[C@@H](NC(=O)c2sc3nccc4c3c2NC(=O)N4c2cccc(-c3ccccc3)c2)C1 [Example 587, (R)-5-([1,1′-Biphenyl]-3-yl)-N-(1-methylpyrrolidin-3-yl)-4-oxo-4,5-dihydro-3H-1-thia-3,5,8-triazaacenaphthylene-2-carboxamide] | 6.5
19 | C=CC(=O)N1CCC[C@@H](NC(=O)c2sc3nccc4c3c2NC(=O)N4c2cccc(-c3cccnc3)c2)C1 [Example 538, (R)—N-(1-Acryloylpiperidin-3-yl)-4-oxo-5-(3-(pyridin-3-yl)phenyl)-4,5-dihydro-3H-1-thia-3,5,8-triazaacenaphthylene-2-carboxamide] | 7.0
20 | Cc1cc(Oc2ccccc2)ccc1N1C(=O)Nc2c(C(=O)N[C@H]3CNC(=O)C3)sc3nccc1c23 (single isomer, unassigned) [Example 471, (*R)-5-(*S)-(2-Methyl-4-phenoxyphenyl)-4-oxo-N-(5-oxopyrrolidin-3-yl)-4,5-dihydro-3H-1-thia-3,5,8-triazaacenaphthylene-2-carboxamide] | 5.9
21 | O=C(N[C@@H]1CCCNC1)c1sc2nccc3c2c1NC(=O)N3c1ccc(Oc2ccccc2)c(Cl)c1 [Example 581, (R)-5-(3-Chloro-4-phenoxyphenyl)-4-oxo-N-(piperidin-3-yl)-4,5-dihydro-3H-1-thia-3,5,8-triazaacenaphthylene-2-carboxamide] | 6.8
22 | O=C(N[C@H]1CNC[C@@H]1F)c1sc2nccc3c2c1NC(=O)N3c1ccc(Oc2ccccc2)cc1 [Example 579, N-((3S,4S)-4-Fluoropyrrolidin-3-yl)-4-oxo-5-(4-phenoxyphenyl)-4,5-dihydro-3H-1-thia-3,5,8-triazaacenaphthylene-2-carboxamide] | 6.9
23 | Cc1cc(Oc2ccccc2)c(F)cc1N1C(=O)Nc2c(C(=O)N[C@@H]3CCCN(C)C3)sc3nccc1c23 [Example 303, (R)-5-(5-Fluoro-2-methyl-4-phenoxyphenyl)-N-(1-methylpiperidin-3-yl)-4-oxo-4,5-dihydro-3H-1-thia-3,5,8-triazaacenaphthylene-2-carboxamide] | 6.0
24 | O=C(N[C@@H]1CCCNC1)c1sc2nccc3c2c1NC(=O)N3c1cccc(-c2ccccc2)c1 [Example 426, (R)-5-([1,1′-Biphenyl]-3-yl)-4-oxo-N-(piperidin-3-yl)-4,5-dihydro-3H-1-thia-3,5,8-triazaacenaphthylene-2-carboxamide] | 6.9
25 | C=CC(=O)N1CC[C@H](C(=O)Nc2sc3nccc4c3c2NC(=O)N4c2ccc(Oc3ccccc3)cc2C)C1 [Example 544, (S)-1-Acryloyl-N-(5-(2-methyl-4-phenoxyphenyl)-4-oxo-4,5-dihydro-3H-1-thia-3,5,8-triazaacenaphthylen-2-yl)pyrrolidine-3-carboxamide] | 7.0

same assay, conditions: unphosphorylated-BTK kinase domain, 60 minutes incubation, 50 nM Tracer 236; pIC50 = negative log of the IC50 in molar

Row | Structure (SMILES) | BTK_I_binding pIC50
26 | Cc1ccccc1N1C(=O)Nc2c(C(=O)N[C@H]3CCCN(C(=O)/C(C#N)=C/C4CC4)C3)sc3nccc1c23 [Example 942, (S,E)-N-(1-(2-Cyano-3-cyclopropylacryloyl)piperidin-3-yl)-4-oxo-5-(o-tolyl)-4,5-dihydro-3H-1-thia-3,5,8-triazaacenaphthylene-2-carboxamide] | 5.6
